We go through 20 compounds from patent US12162848B2, “Inhibitors of protein tyrosine phosphatase, compositions, and methods of use” (BRISTOL-MYERS SQUIBB COMPANY, priority 2022, dated 2024).

As usually defined, the IC50 is the concentration at which inhibition is half-maximal. A word on the EC50: it is the concentration that produces a half-maximal response.

Structures are written as SMILES.

The target of one assay is T1, PTPN2 enzyme (Homo sapiens, UniProt P17706).
T1 sequence (P17706 1-415): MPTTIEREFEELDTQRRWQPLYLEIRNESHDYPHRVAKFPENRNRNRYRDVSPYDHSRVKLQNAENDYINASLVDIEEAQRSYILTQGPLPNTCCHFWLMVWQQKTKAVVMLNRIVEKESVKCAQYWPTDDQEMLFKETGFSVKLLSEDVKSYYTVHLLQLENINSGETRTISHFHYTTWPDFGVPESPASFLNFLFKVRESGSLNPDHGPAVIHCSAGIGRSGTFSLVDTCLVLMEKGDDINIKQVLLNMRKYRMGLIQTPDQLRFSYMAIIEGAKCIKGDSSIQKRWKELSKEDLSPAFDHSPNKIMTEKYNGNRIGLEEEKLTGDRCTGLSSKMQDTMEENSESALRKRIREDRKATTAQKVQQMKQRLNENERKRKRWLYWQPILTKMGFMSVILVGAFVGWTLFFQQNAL
Description: PhosphoSens PTPN2 biochemical assay. To be noted: substrate AQT0264 20 μM, room temperature; read-out: PTPN2 BCHEM IC50. As for the experimental part:
A PhosphoSens® kinase assay was performed as described by the vendor (AssayQuant Technologies, Marlborough, MA). Briefly, 1000×solutions of compounds were prepared in DMSO via serial dilution of the 10 mM DMSO stocks using 3-fold intervals in a 384-well reagent plate. 50 nL of the compound dilution series was then added to the corresponding wells of a 384-well assay plate. […] of 1.25×substrate (AQT0264) in 1× assay buffer (50 mM HEPES pH 7.5, 500 μM EGTA, […] MgCl2, 0.01% Brij-35, 1% Glycerol, 1 mM DTT, and 0.2 mg/mL BSA) was transferred to each well of the assay plate to achieve a final substrate concentration of 20 μM. Finally, […] of 5×PTPN2 enzyme stock was added to each well of the assay plate for a final enzyme concentration of […]. Reaction progress curves were collected by sampling fluorescence intensity at the excitation wavelength 360 nm (λex360) and emission wavelength 480 nm (λem480) every 71 seconds for one hour using a Synergy H4 plate reader (BioTek Instruments/Agilent Technologies, Winooski, VT) at room temperature.

Assay [1] has as its system phosphorylated STAT1 protein levels in B16-F10 cells. The assay is described as follows: Phospho-STAT1 (Tyr701) HTRF assay in IFN-gamma treated B16-F10 cells. The following applies: mouse IFN-gamma 100 ng/mL, 1 hour, read-out: pSTAT1 HTRF B16 EC50. The class given is cell-based. As for the experimental part: B16-F10 cells (ATCC, Manassas, VA, #CRL-6475) were cultured in DMEM growth medium (ThermoFisher Scientific, Waltham, MA, #11995-040) supplemented with 10% heat inactivated FBS (ThermoFisher Scientific, #16140-071) and 1% pen/strep (ThermoFisher Scientific, #15140-122). The cells were seeded into a white opaque 384-well tissue culture treated microplate (PerkinElmer, Waltham, MA, #6007688) at a density of 10,000 cells/well in 20 uL total volume and incubated overnight at 37 C and 5% CO2. 30 nL of compounds dissolved in DMSO were then transferred from a source plate into target wells with the Echo650 acoustic liquid handler (Beckman Coulter, Indianapolis, IN). Negative control wells received 30 nL of DMSO only (0.15% final concentration). Plates were returned to the incubator for 1 hour and then cells treated with either 5 uL of growth medium or 5 uL of growth medium containing 500 ng/mL of recombinant mouse IFN-gamma protein (R&D Systems, Minneapolis, MN, #485-MI/CF, 100 ng/mL final concentration) using the Assist automated pipetting platform (INTEGRA Biosciences, Hudson, NH). Plates were incubated at 37 C for 1 hour and assayed for phosphorylated STAT1 protein levels with the phospho-STAT1 (Tyr701) HTRF kit (Cisbio, Bedford, MA, #63ADK026PEH) according to manufacturer's instructions.
For orientation: TR-FRET usually uses a lanthanide donor and a delayed reading to cut background.

For another assay, the system named is B16-F10 cells. The assay is described as follows: Cell proliferation assay (CellTiter-Glo) in IFN-gamma treated B16-F10 cells. The class given is cell-based. The following applies: 120 h, mouse IFN-gamma 10 ng/mL, read-out: PTPN2 Prolif 5d B16F10 EC50. As for the experimental part:
B16-F10 cells (ATCC, Manassas, VA, #CRL-6475) were cultured in DMEM growth medium (ThermoFisher Scientific, Waltham, MA, #11995-040) supplemented with 10% heat inactivated FBS (ThermoFisher Scientific, #16140-071) and 1% pen/strep (ThermoFisher Scientific, #15140-122). The cells were seeded into two white opaque 384-well tissue culture treated microplates (PerkinElmer, Waltham, MA, #6007688) at a density of 100 cells/well in 20 uL total volume and incubated overnight at 37 C and 5% CO2. 30 nL of compounds dissolved in DMSO were then transferred from a source plate into target wells with the Echo650 acoustic liquid handler (Beckman Coulter, Indianapolis, IN). Negative control wells received 30 nL of DMSO only (0.15% final concentration). Plates were returned to the incubator for 1 hour and then cells treated with either 5 uL of growth medium or 5 uL of growth medium containing 50 ng/mL of recombinant mouse IFN-gamma protein (R&D Systems, Minneapolis, MN, #485-MI/CF, 10 ng/mL final concentration) using the Assist automated pipetting platform (INTEGRA Biosciences, Hudson, NH). Plates were incubated at 37 C for 4 days and cell proliferation assayed with the CellTiter-Glo reagent (Promega, Madison, WI, #G7573, 25 uL per well). […] Off-target compound mediated cytotoxicity was identified by checking for growth inhibition in the absence of IFNg.

`CC(C)CCN1CCC(Nc2cc(O)c(N3CC(=O)NS3(=O)=O)c(F)c2)CC1` [EXAMPLE 89, 5-(2-fluoro-6-hydroxy-4-((1-isopentylpiperidin-4-yl)amino)phenyl)-1,2,5-thiadiazolidin-3-one 1,1-dioxide]: the half-maximal inhibitory concentration (IC50) on PTPN2 enzyme is 0.757 µM. Also, the EC50 (in assay [1]; in the assay on B16-F10 cells) was not below 15 µM throughout.
With `CN1CCN(Cc2cc(O)c(N3CC(=O)NS3(=O)=O)c(F)c2)CC1` [EXAMPLE 31, 5-(2-fluoro-6-hydroxy-4-((4-methylpiperazin-1-yl)methyl)phenyl)-1,2,5-thiadiazolidin-3-one 1,1-dioxide], the IC50 at PTPN2 enzyme turned out to be 0.104 µM. Besides, the figures for the EC50 (in assay [1]; with B16-F10 cells) were 2.41 µM and 1.31 µM, respectively.
For `CN(C)CCNC(=O)c1cc(O)c(N2CC(=O)NS2(=O)=O)c(F)c1` [EXAMPLE 91, N-(2-(dimethylamino)ethyl)-4-(1,1-dioxido-4-oxo-1,2,5-thiadiazolidin-2-yl)-3-fluoro-5-hydroxybenzamide], the EC50 (in assay [1]; with B16-F10 cells) was not below 15 µM in each case.
Consider `N#Cc1ccc(Cl)c(NCc2cc(O)c(N3CC(=O)NS3(=O)=O)c(F)c2)c1` [EXAMPLE 81, 4-chloro-3-[[3-fluoro-5-hydroxy-4-(1,1,4-trioxo-1,2,5-thiadiazolidin-2-yl)phenyl]methylamino]benzonitrile], for which the EC50 (in assay [1]; in the assay on B16-F10 cells) was not below 15 µM in each case.
On to `CN(C)[C@H]1CC[C@H](NC(=O)c2cc(O)c(N3CC(=O)NS3(=O)=O)c(F)c2)CC1` [EXAMPLE 96, N-((1r,4r)-4-(dimethylamino)cyclohexyl)-4-(1,1-dioxido-4-oxo-1,2,5-thiadiazolidin-2-yl)-3-fluoro-5-hydroxybenzamide], for which the EC50 (in assay [1]; with B16-F10 cells) was not below 15 µM in each case.
As to `O=C1CN(c2c(O)ccc(CNC3CCCCC3)c2F)S(=O)(=O)N1` [EXAMPLE 100, 5-(3-((cyclohexylamino)methyl)-2-fluoro-6-hydroxyphenyl)-1,2,5-thiadiazolidin-3-one 1,1-dioxide], the concentration giving a half-maximal response (EC50) (in assay [1]; in the assay on B16-F10 cells) was not below 15 µM throughout.
`O=C1CN(c2c(O)cc(C(=O)NC3CCNCC3)cc2F)S(=O)(=O)N1` [EXAMPLE 92, 4-(1,1-dioxido-4-oxo-1,2,5-thiadiazolidin-2-yl)-3-fluoro-5-hydroxy-N-(piperidin-4-yl)benzamide]: the EC50 (in assay [1]; with B16-F10 cells) was not below 15 µM in each case.
Consider `N#Cc1cc(CNCc2cc(O)c(N3CC(=O)NS3(=O)=O)c(F)c2)ccc1F` [EXAMPLE 45, 2-fluoro-5-[[[3-fluoro-5-hydroxy-4-(1,1,4-trioxo-1,2,5-thiadiazolidin-2-yl)phenyl]methylamino]methyl]benzonitrile], for which the IC50 on PTPN2 enzyme came to 0.07 µM. Further, the EC50 in assay [1] was determined as 1.87 µM.
On to `O=C1CN(c2c(O)ccc(C3CCNCC3)c2F)S(=O)(=O)N1` [EXAMPLE 105, 5-(2-fluoro-6-hydroxy-3-(piperidin-4-yl)phenyl)-1,2,5-thiadiazolidin-3-one 1,1-dioxide], for which the EC50 (in assay [1]; in the assay with B16-F10 cells) was not below 15 µM each time.
On to `O=C1CN(c2c(O)ccc(CNC3CCOCC3)c2F)S(=O)(=O)N1` [EXAMPLE 101, 5-(2-fluoro-6-hydroxy-3-(((tetrahydro-2H-pyran-4-yl)amino)methyl)phenyl)-1,2,5-thiadiazolidin-3-one 1,1-dioxide], for which the EC50 (in assay [1]; with B16-F10 cells) was not below 15 µM in each case.
For `CN1CCN(Cc2ccc(O)c(N3CC(=O)NS3(=O)=O)c2F)CC1` [EXAMPLE 103, 5-(2-fluoro-6-hydroxy-3-((4-methylpiperazin-1-yl)methyl)phenyl)-1,2,5-thiadiazolidin-3-one 1,1-dioxide], the EC50 (in assay [1]; in the assay on B16-F10 cells) was not below 15 µM throughout.
Consider `O=C1CN(c2c(O)cc(C(=O)N[C@H]3CCCNC3)cc2F)S(=O)(=O)N1` [EXAMPLE 93, (S)-4-(1,1-dioxido-4-oxo-1,2,5-thiadiazolidin-2-yl)-3-fluoro-5-hydroxy-N-(piperidin-3-yl)benzamide], for which the half-maximal effective concentration (EC50) (in assay [1]; with B16-F10 cells) was not below 15 µM each time.
As to `O=C1CN(c2c(O)ccc(CN3CCOCC3)c2F)S(=O)(=O)N1` [EXAMPLE 99, 5-(2-fluoro-6-hydroxy-3-(morpholinomethyl)phenyl)-1,2,5-thiadiazolidin-3-one 1,1-dioxide], the EC50 (in assay [1]; in the assay on B16-F10 cells) was not below 15 µM each time.
`COc1ncccc1-c1cc(O)c(N2CC(=O)NS2(=O)=O)c(F)c1` [EXAMPLE 25, 5-[2-fluoro-6-hydroxy-4-(2-methoxy-3-pyridyl)phenyl]-1,1-dioxo-1,2,5-thiadiazolidin-3-one]: on PTPN2 enzyme, the IC50 was 0.266 µM. Also, the EC50 in assay [1] turned out to be 9.74 µM.
On to `COCCC1CCN(Cc2cc(O)c(N3CC(=O)NS3(=O)=O)c(F)c2)CC1` [EXAMPLE 55, 5-[2-fluoro-6-hydroxy-4-[[4-(2-methoxyethyl)-1-piperidyl]methyl]phenyl]-1,1-dioxo-1,2,5-thiadiazolidin-3-one], for which the concentration for half-maximal inhibition (IC50) at PTPN2 enzyme was determined as 0.401 µM. Besides, the EC50 in assay [1] worked out at 11.3 µM.
As for `O=C1CN(c2c(O)cc(CNc3cc(C4CC4)ccn3)cc2F)S(=O)(=O)N1` [EXAMPLE 82, 5-[4-[[(4-cyclopropyl-2-pyridyl)amino]methyl]-2-fluoro-6-hydroxy-phenyl]-1,1-dioxo-1,2,5-thiadiazolidin-3-one], on PTPN2 enzyme, the IC50 turned out to be 0.01 µM. In assay [1], the EC50 came out at 0.197 µM.
For `CC1(C)CCC(NCc2ccc(O)c(N3CC(=O)NS3(=O)=O)c2F)CC1` [EXAMPLE 97, 5-(3-(((4,4-dimethylcyclohexyl)amino)methyl)-2-fluoro-6-hydroxyphenyl)-1,2,5-thiadiazolidin-3-one 1,1-dioxide], the concentration giving a half-maximal response (EC50) (in assay [1]; in the assay on B16-F10 cells) was not below 15 µM in each case.
Regarding `O=C1CN(c2c(O)cc(C(=O)N[C@@H]3CCCNC3)cc2F)S(=O)(=O)N1` [EXAMPLE 94, (R)-4-(1,1-dioxido-4-oxo-1,2,5-thiadiazolidin-2-yl)-3-fluoro-5-hydroxy-N-(piperidin-3-yl)benzamide], the EC50 (in assay [1]; in the assay with B16-F10 cells) was not below 15 µM each time.
Turning to `O=C1CN(c2c(O)cc(CN[C@@H]3CCCN(S(=O)(=O)c4cccc(F)c4)C3)cc2F)S(=O)(=O)N1` [EXAMPLE 69, 5-[2-fluoro-4-[[[(3R)-1-(3-fluorophenyl)sulfonyl-3-piperidyl]amino]methyl]-6-hydroxy-phenyl]-1,1-dioxo-1,2,5-thiadiazolidin-3-one], the IC50 on PTPN2 enzyme was 0.088 µM. For the same compound, the EC50 in assay [1] is not below 15 µM.
On to `CC(C)OC1CCN(Cc2cc(O)c(N3CC(=O)NS3(=O)=O)c(F)c2)CC1` [EXAMPLE 54, 5-[2-fluoro-6-hydroxy-4-[(4-isopropoxy-1-piperidyl)methyl]phenyl]-1,1-dioxo-1,2,5-thiadiazolidin-3-one], for which the IC50 on PTPN2 enzyme amounted to 0.331 µM. In addition, the EC50 in assay [1] was determined as 13.1 µM.
